According to PubChem BioAssay (NCI):
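Cells were grown in 96-well plates and exposed to each compound for 48 hours at five concentrations; endpoints were interpolated linearly between bracketing concentrations, or set to the highest concentration if not reached. The concentration for full growth arrest is given as TGI.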

Tests used:
Assay in all cases: growth of human tumour cells (NCI), 48 h
SNB-19 CNS = test system: SNB-19 CNS
U251 CNS = test system: U251 CNS
SK-MEL-2 melanoma = test system: SK-MEL-2 melanoma
SW-620 colon = test system: SW-620 colon
COLO 205 colon = test system: COLO 205 colon
SNB-75 CNS = test system: SNB-75 CNS
HT29 colon = test system: HT29 colon
SK-MEL-28 melanoma = test system: SK-MEL-28 melanoma
TK-10 renal = test system: TK-10 renal
HOP-92 NSCLC = test system: HOP-92 NSCLC
NCI-H23 lung = test system: NCI-H23 lung
CCRF-CEM leukemia = test system: CCRF-CEM leukemia
A549 NSCLC = test system: A549 NSCLC
OVCAR-4 ovarian = test system: OVCAR-4 ovarian
M19-MEL melanoma = test system: M19-MEL melanoma
IGROV1 ovarian = test system: IGROV1 ovarian
OVCAR-3 ovarian = test system: OVCAR-3 ovarian
UACC-62 melanoma = test system: UACC-62 melanoma
CAKI-1 renal = test system: CAKI-1 renal
XF 498 CNS = test system: XF 498 CNS
HL-60(TB) leukemia = test system: HL-60(TB) leukemia
HCT-116 colon = test system: HCT-116 colon
SK-MEL-5 melanoma = test system: SK-MEL-5 melanoma
NCI-H522 lung = test system: NCI-H522 lung
SN12C renal = test system: SN12C renal
MALME-3M melanoma = test system: MALME-3M melanoma
K-562 leukemia = test system: K-562 leukemia
ACHN renal = test system: ACHN renal
KM20L2 colon = test system: KM20L2 colon
M14 melanoma = test system: M14 melanoma
SF-539 CNS = test system: SF-539 CNS
OVCAR-5 ovarian = test system: OVCAR-5 ovarian
RPMI-8226 leukemia = test system: RPMI-8226 leukemia
DMS 273 small cell lung = test system: DMS 273 small cell lung
A498 renal = test system: A498 renal
HCT-15 colon = test system: HCT-15 colon
HOP-62 NSCLC = test system: HOP-62 NSCLC
SF-295 CNS = test system: SF-295 CNS
NCI-H460 lung = test system: NCI-H460 lung
SF-268 CNS = test system: SF-268 CNS
OVCAR-8 ovarian = test system: OVCAR-8 ovarian
DMS 114 small cell lung = test system: DMS 114 small cell lung
NCI-H226 lung = test system: NCI-H226 lung
MOLT-4 leukemia = test system: MOLT-4 leukemia
SK-OV-3 ovarian = test system: SK-OV-3 ovarian
LXFL 529 NSCLC = test system: LXFL 529 NSCLC
UO-31 renal = test system: UO-31 renal
LOX IMVI melanoma = test system: LOX IMVI melanoma
UACC-257 melanoma = test system: UACC-257 melanoma
KM12 colon = test system: KM12 colon
786-0 renal = test system: 786-0 renal
SR leukemia = test system: SR leukemia
EKVX NSCLC = test system: EKVX NSCLC
SNB-78 CNS = test system: SNB-78 CNS
HCC-2998 colon = test system: HCC-2998 colon
RXF 393 renal = test system: RXF 393 renal
HOP-18 NSCLC = test system: HOP-18 NSCLC
DLD-1 colon = test system: DLD-1 colon

CCN1C(=O)/C(=C\c2coc3ccccc3c2=O)SC1=S
TGI (SNB-19 CNS): > 100 µM
TGI (U251 CNS): > 100 µM
TGI (SK-MEL-2 melanoma): > 100 µM
TGI (SW-620 colon): > 100 µM
TGI (COLO 205 colon): > 100 µM
TGI (SNB-75 CNS): > 100 µM
TGI (HT29 colon): > 100 µM
TGI (SK-MEL-28 melanoma): > 100 µM
TGI (TK-10 renal): > 100 µM
TGI (HOP-92 NSCLC): > 100 µM
TGI (NCI-H23 lung): > 100 µM
TGI (CCRF-CEM leukemia): > 100 µM
TGI (A549 NSCLC): > 100 µM
TGI (OVCAR-4 ovarian): > 100 µM
TGI (M19-MEL melanoma): > 100 µM
TGI (IGROV1 ovarian): > 100 µM
TGI (OVCAR-3 ovarian): > 100 µM
TGI (UACC-62 melanoma): > 100 µM
TGI (CAKI-1 renal): > 100 µM
TGI (XF 498 CNS): > 100 µM
TGI (HL-60(TB) leukemia): > 100 µM
TGI (HCT-116 colon): > 100 µM
TGI (SK-MEL-5 melanoma): > 100 µM
TGI (NCI-H522 lung): > 100 µM
TGI (SN12C renal): > 100 µM
TGI (MALME-3M melanoma): > 100 µM
TGI (K-562 leukemia): > 100 µM
TGI (ACHN renal): > 100 µM
TGI (KM20L2 colon): > 100 µM
TGI (M14 melanoma): > 100 µM
TGI (SF-539 CNS): 90.1 µM
TGI (OVCAR-5 ovarian): > 100 µM
TGI (RPMI-8226 leukemia): > 100 µM
TGI (DMS 273 small cell lung): > 100 µM
TGI (A498 renal): > 100 µM
TGI (HCT-15 colon): > 100 µM
TGI (HOP-62 NSCLC): > 100 µM
TGI (SF-295 CNS): > 100 µM
TGI (NCI-H460 lung): > 100 µM
TGI (SF-268 CNS): > 100 µM
TGI (OVCAR-8 ovarian): > 100 µM
TGI (DMS 114 small cell lung): > 100 µM
TGI (NCI-H226 lung): > 100 µM
TGI (MOLT-4 leukemia): > 100 µM
TGI (SK-OV-3 ovarian): > 100 µM
TGI (LXFL 529 NSCLC): > 100 µM
TGI (UO-31 renal): > 100 µM
TGI (LOX IMVI melanoma): > 100 µM
TGI (UACC-257 melanoma): > 100 µM
TGI (KM12 colon): > 100 µM
TGI (786-0 renal): > 100 µM
TGI (SR leukemia): > 100 µM
TGI (EKVX NSCLC): > 100 µM
TGI (SNB-78 CNS): > 100 µM
TGI (HCC-2998 colon): > 100 µM
TGI (RXF 393 renal): > 100 µM
TGI (HOP-18 NSCLC): > 100 µM
TGI (DLD-1 colon): > 100 µM

COc1ccc(/C=C/C(=O)c2c(-c3ccccc3)nn(C)c(=O)c2N2CCCC2)cc1
TGI (U251 CNS): > 100 µM
TGI (SW-620 colon): > 100 µM
TGI (COLO 205 colon): > 100 µM
TGI (HT29 colon): > 100 µM
TGI (SK-MEL-28 melanoma): > 100 µM
TGI (TK-10 renal): > 100 µM
TGI (HOP-92 NSCLC): 37.5 µM
TGI (CCRF-CEM leukemia): > 100 µM
TGI (A549 NSCLC): > 100 µM
TGI (M19-MEL melanoma): > 100 µM
TGI (IGROV1 ovarian): > 100 µM
TGI (UACC-62 melanoma): > 100 µM
TGI (XF 498 CNS): > 100 µM
TGI (HL-60(TB) leukemia): > 100 µM
TGI (HCT-116 colon): > 100 µM
TGI (SK-MEL-5 melanoma): > 100 µM
TGI (SN12C renal): > 100 µM
TGI (K-562 leukemia): > 100 µM
TGI (ACHN renal): > 100 µM
TGI (KM20L2 colon): > 100 µM
TGI (M14 melanoma): > 100 µM
TGI (SF-539 CNS): > 100 µM
TGI (RPMI-8226 leukemia): > 100 µM
TGI (DMS 273 small cell lung): > 100 µM
TGI (A498 renal): > 100 µM
TGI (HCT-15 colon): > 100 µM
TGI (SF-295 CNS): > 100 µM
TGI (NCI-H460 lung): > 100 µM
TGI (SF-268 CNS): > 100 µM
TGI (OVCAR-8 ovarian): > 100 µM
TGI (DMS 114 small cell lung): > 100 µM
TGI (MOLT-4 leukemia): > 100 µM
TGI (SK-OV-3 ovarian): > 100 µM
TGI (LXFL 529 NSCLC): > 100 µM
TGI (UO-31 renal): > 100 µM
TGI (LOX IMVI melanoma): > 100 µM
TGI (786-0 renal): > 100 µM
TGI (EKVX NSCLC): > 100 µM
TGI (HOP-18 NSCLC): > 100 µM
TGI (DLD-1 colon): > 100 µM

O=S(Cc1cnc2ccccc2c1)c1nc2ccccc2nc1-c1cccs1 (configuration not stated)
TGI (SNB-19 CNS): 43.6 µM
TGI (U251 CNS): 33.5 µM
TGI (COLO 205 colon): 42 µM
TGI (SNB-75 CNS): 39.3 µM
TGI (HT29 colon): 37.1 µM
TGI (SK-MEL-28 melanoma): 34.9 µM
TGI (HOP-92 NSCLC): 25 µM
TGI (NCI-H23 lung): 35.7 µM
TGI (CCRF-CEM leukemia): > 100 µM
TGI (A549 NSCLC): 48.6 µM
TGI (OVCAR-4 ovarian): 24.6 µM
TGI (IGROV1 ovarian): 33.4 µM
TGI (OVCAR-3 ovarian): 34.7 µM
TGI (XF 498 CNS): 16.9 µM
TGI (HL-60(TB) leukemia): 72.8 µM
TGI (HCT-116 colon): 22.4 µM
TGI (SN12C renal): 32.8 µM
TGI (MALME-3M melanoma): 37.7 µM
TGI (K-562 leukemia): > 100 µM
TGI (ACHN renal): 26.4 µM
TGI (M14 melanoma): 32.2 µM
TGI (SF-539 CNS): 32.8 µM
TGI (OVCAR-5 ovarian): 28.5 µM
TGI (RPMI-8226 leukemia): > 100 µM
TGI (DMS 273 small cell lung): 34.9 µM
TGI (SF-295 CNS): 61 µM
TGI (SF-268 CNS): 39.6 µM
TGI (OVCAR-8 ovarian): 51.7 µM
TGI (DMS 114 small cell lung): 25.8 µM
TGI (NCI-H226 lung): 11.6 µM
TGI (MOLT-4 leukemia): > 100 µM
TGI (SK-OV-3 ovarian): 73 µM
TGI (LXFL 529 NSCLC): 20.8 µM
TGI (UO-31 renal): 28.3 µM
TGI (UACC-257 melanoma): 31.2 µM
TGI (786-0 renal): 27.3 µM
TGI (EKVX NSCLC): 25 µM
TGI (SNB-78 CNS): 50.7 µM
TGI (HOP-18 NSCLC): 31.7 µM
